In assay [1] the target is T1, gastric H/K ATPase (Sus scrofa, UniProt P19156).
T1 construct: Hog and stimulated rabbit gastric membrane vesicles are isolated according to methods known in the art; from tissue; host or cells: hog gastric membrane vesicles
As to the kind of experiment: H+ transport (acidification) by hog gastric H/K ATPase vesicles reconstituted in phospholipid-coated PC filters. Format: biochemical. The procedure: (§1) Hog and stimulated rabbit gastric membrane vesicles are isolated according to methods known in the art (Saccomani et al. Biochim. Biophys. Acta 465 (1977) 311-330, Cuppoletti, et al. J. Biol. Chem. 259 (1984) 14952-1 4959). A lipid bilayer is made on 0.4 μm polycarbonate filters (area=0.11 cm^2) in Multiscreen Caco-2 filter plates. […] of 40 mg/ml 3:1 POPS:POPE in n-decane is added to the filter (inner well) and after 30 min 100 mM K-gluconate solution is added to both sides (inner & outer wells). After 2 hrs, resistance is measured with a multimeter and Ag/AgCl electrodes to ensure that a bilayer had formed. The K-gluconate solution in the inner well is removed and 5 μl of hog or stimulated rabbit gastric vesicles are added to the inner well and left for 1 hr. Resistance is then measured in 100 mM K-gluconate, KCL, NaCl and NMDGCI. To measure H^+ transport, 200 μl 10 mM KCL is added to the outer well and 100 μl of 100 mM KCL, 10 mM HEPES pH 7.4 is added to the inner well. pH of the medium in the outer well (pHo) is measured using a PHR-146 pH Electrode (LAZAR Research Labs. Los Angeles, Calif.) and an Accumet pH meter 910 (Fisher, Pittsburgh, Pa.). When the pHo is almost constant, 5 μl 100 mM MGATP solution and 1 μl 10 mg/ml valinomycin are added to the inner well and pHo was followed. […] The change in pHo over time is recorded using AXOTAPE (Union City, Calif.).

Assay [2] addresses T2, gastric H/K ATPase (Oryctolagus cuniculus, UniProt P27112).
T2 construct: Hog and stimulated rabbit gastric membrane vesicles are isolated according to methods known in the art; from tissue; host or cells: stimulated rabbit gastric membrane vesicles
As to the kind of experiment: H+ transport (acidification) by rabbit gastric H/K ATPase vesicles reconstituted in phospholipid-coated PC filters. The following applies: 100 μM SCH28080, rabbit gastric vesicles, P<0.02. Format: biochemical. The procedure: as §1

Assay [3] has as its system gastric proton pump H/K ATPase. As to the kind of experiment: Example 1: ATP-dependent transport of acid across the bilayer with reconstituted gastric proton pump. The assay is classed as biochemical. The conditions noted are these: 100 μm SCH-28080. An excerpt:
This example illustrates an embodiment of bilayer formation, membrane transport reconstitution and testing for functionality. The bilayer is formed over pores of a polycarbonate substrate comprising naturally present pores or drilled holes. Millipore micro porous polycarbonates of various pore sizes (0.4, 3, 5, and 8 μm, e.g.) are commercially available, and a multi-well porous plastic plate with 10-100 μm Lenox-laser drilled holes (1/well) is available from Procter & Gamble Co. and is used for stable bilayer formation. Techniques for bilayer preparation are known by those of ordinary skill in the art. […] The bilayer is verified according to the gramicidin-D (a cation selective antibiotic) method wherein electrical resistance is monitored to observe the effect of gramicidin in reducing the resistance of the membrane. Current flow is measured by placing one electrode in the desired well and one in the surrounding liquid outside the well. […]
The verified bilayer is incubated with vesicles comprising H/K ATPase or Kv1.5 potassium channels. 3 μl of vesicles is added to each well which was determined to have a verified bilayer. Spontaneous fusion with the bilayer is allowed to proceed for 30 minutes to one hour, at which point H/K ATPase induced acidification or potassium ion currents across the bilayer membrane are measured. […] The current is measured as described earlier, after one hour. […]

For assay [4], the target named is T3, Kv1.5 K+ channels (Homo sapiens, UniProt P22460).
T3 construct: expressed in transfected cells; host or cells: Ltk- mouse fibroblast cells, stably transfected, dexamethasone-induced; plasma membrane vesicles
T3 sequence (P22460 whole entry): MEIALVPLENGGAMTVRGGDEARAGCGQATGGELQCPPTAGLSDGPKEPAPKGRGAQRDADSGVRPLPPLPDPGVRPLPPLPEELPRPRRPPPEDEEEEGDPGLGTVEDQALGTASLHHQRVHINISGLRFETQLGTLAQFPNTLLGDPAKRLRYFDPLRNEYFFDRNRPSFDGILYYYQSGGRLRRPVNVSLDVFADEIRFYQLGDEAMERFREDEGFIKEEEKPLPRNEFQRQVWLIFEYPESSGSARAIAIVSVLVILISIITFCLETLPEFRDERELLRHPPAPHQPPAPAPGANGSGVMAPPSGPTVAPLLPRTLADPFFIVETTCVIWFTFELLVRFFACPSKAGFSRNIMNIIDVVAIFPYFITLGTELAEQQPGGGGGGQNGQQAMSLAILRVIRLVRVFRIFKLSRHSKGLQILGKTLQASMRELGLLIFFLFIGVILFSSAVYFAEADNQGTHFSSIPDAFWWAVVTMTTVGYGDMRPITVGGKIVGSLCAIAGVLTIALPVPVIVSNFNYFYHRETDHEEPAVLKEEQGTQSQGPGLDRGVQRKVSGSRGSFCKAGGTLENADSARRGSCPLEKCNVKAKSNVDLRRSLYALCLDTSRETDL
As to the kind of experiment: Kv1.5 K+ channel vesicles reconstituted in phospholipid-coated leached PLLA membranes, resistance measurement. Format: biochemical. The conditions noted are these: 1 μM compound B, KCl, n=8; PL alone 7.39, PL+Kv1.5 vesicles 0.55 MΩ. Here is the method:
(§2) Bilayer formation is studied using PC, PETE and PLLA membranes (area=0.3 cm^2). Phospholipid bilayers are made by adding […] of 3:1 POPS:POPE (40 mg/ml) in n-decane to the membranes and waiting for 30 min. 100 mM KCL/10 mM HEPES (pH 7.4), is then added to both sides of the membrane (150 μl inside insert or well; 200 outside solution) and left for 30 minutes. A multimeter and Ag/AgCl reference electrodes are used to measure the resistance across the phospholipid-coated membranes. When gramicidin D is used, it is mixed with the lipids to a final concentration of 1 μg/ml. 10 μl of the lipid/gramicidin mixture is added to the membranes. After 30 minutes medium is added to both sides of the lipid-coated membrane (both inner and outer wells) and left for another 30 minutes. Resistances of the lipid-coated membranes are measured with two different media bathing the lipid bilayer on both sides: 100 mM KCl/10 mM HEPES (pH 7.4) and 100 mMNMDGCI/10 mM HEPES (pH 7.4). Reconstitution of gramicidin D is also done using the 96-well plastic plate with laser drilled holes and current is measured as described below.
Reconstitution of Kv1.5 K^+ channels is also carried out using lipid coated PLLA membranes (area=0.3 cm2) and resistance is measured as described in the previous section. Effects of compound B are also tested.

Assay [5] concerns the target T3, Kv1.5 K+ channels. As to the kind of experiment: Kv1.5 K+ channel vesicles reconstituted in phospholipid bilayers in 50 μm laser-drilled holes of a 96-well plastic plate, current measurement. The assay is classed as biochemical. The procedure: The verified bilayer is incubated with vesicles comprising H/K ATPase or Kv1.5 potassium channels. 3 μl of vesicles is added to each well which was determined to have a verified bilayer. Spontaneous fusion with the bilayer is allowed to proceed for 30 minutes to one hour, at which point H/K ATPase induced acidification or potassium ion currents across the bilayer membrane are measured. A desired amount of […] is added to the well (for example, add 90 μl of 100 mM KCl for […], add 92.5 μl of 100 MM KCl for 750 nM). The well tray is placed back into the holder with the 100 mM KCl and current flow is measured as before. Add a desired amount of a suitable 10 μM inhibitor to achieve a final desired concentration with the final volume of 100 μl. When the gastric proton pump H/K ATPase is reconstituted on the bilayer over the pores, ATP-dependent transport of acid across the bilayer is observed that can be inhibited by 100 μm SCH-28080 (a specific inhibitor of the H/K ATPase). The current is measured as described earlier, after one hour. […] Ion currents are not present when the vesicles lack Kv1.5 or when Kv1.5 vesicles are boiled.
To investigate reconstitution of ion channels, plasma membrane vesicles containing Kv1.5, K^+ channels are prepared from an Ltk^− cell line (mouse fibroblast cells) stably overexpressing Kv1.5 K^+ channels under the control of a dexamethasone promoter as previously described (Matsuno, et al. Biochem. Biophys. Acta 1665 (2004) 184-190). Dexamethasone-specific induction of channel expression is totally specific for Kv1.5 channels. […] A 96-well plastic plate with laser drilled pores varying from 10-100 μm (1/well) is used. Well area is 0.3 cm^2. The phospholipid bilayer is made by adding 5 μl of 40 mg/ml 3:1 POPS:POPE in n-decane to each well. After 30 min 100 mM KCl/20 mM HEPES (pH 7.4) is added to both sides of the bilayer (both inner and outer wells). After a further 30 min, the solution from the inner well is removed and plasma membrane vesicles (5 μl) containing Kv1.5 K^+ channels are added to the lipid coated wells. After 30 min, 100 mM KCl/20 mM HEPES (pH 7.4) is returned to the well and currents across the bilayer are measured with an HS-2A headstage and Gene Clamp 500 amplifier (Axon Instruments, Foster City, Calif.) and filtered at 50 Hz. Voltages ranging from −80 to +70 mV are applied in 10-mV increments for 200 msec and electrical currents are recorded using pCLAMP version 5.5. When indicated, compound B, an inhibitor of Kv1.5 K^+ channels (see U.S. Pat. No. 6,174,908) is added.

Assay [6] can be described thus: Ion flux across the inventive membrane with gramicidin D as ionophore.
The nature of assay [7]: Gramicidin D reconstituted in the phospholipid bilayer in 50 μm holes of the 96-well plastic plate, current measurement. The conditions noted are these: KCl medium, +70 mV. The procedure: as §2, with “below. […]” for “below.”
Assay [8] can be described thus: Assay of lipid bilayer formation: resistance across phospholipid-coated porous membranes with gramicidin D. Here is the method: as §2

T1 sequence (P19156 whole entry): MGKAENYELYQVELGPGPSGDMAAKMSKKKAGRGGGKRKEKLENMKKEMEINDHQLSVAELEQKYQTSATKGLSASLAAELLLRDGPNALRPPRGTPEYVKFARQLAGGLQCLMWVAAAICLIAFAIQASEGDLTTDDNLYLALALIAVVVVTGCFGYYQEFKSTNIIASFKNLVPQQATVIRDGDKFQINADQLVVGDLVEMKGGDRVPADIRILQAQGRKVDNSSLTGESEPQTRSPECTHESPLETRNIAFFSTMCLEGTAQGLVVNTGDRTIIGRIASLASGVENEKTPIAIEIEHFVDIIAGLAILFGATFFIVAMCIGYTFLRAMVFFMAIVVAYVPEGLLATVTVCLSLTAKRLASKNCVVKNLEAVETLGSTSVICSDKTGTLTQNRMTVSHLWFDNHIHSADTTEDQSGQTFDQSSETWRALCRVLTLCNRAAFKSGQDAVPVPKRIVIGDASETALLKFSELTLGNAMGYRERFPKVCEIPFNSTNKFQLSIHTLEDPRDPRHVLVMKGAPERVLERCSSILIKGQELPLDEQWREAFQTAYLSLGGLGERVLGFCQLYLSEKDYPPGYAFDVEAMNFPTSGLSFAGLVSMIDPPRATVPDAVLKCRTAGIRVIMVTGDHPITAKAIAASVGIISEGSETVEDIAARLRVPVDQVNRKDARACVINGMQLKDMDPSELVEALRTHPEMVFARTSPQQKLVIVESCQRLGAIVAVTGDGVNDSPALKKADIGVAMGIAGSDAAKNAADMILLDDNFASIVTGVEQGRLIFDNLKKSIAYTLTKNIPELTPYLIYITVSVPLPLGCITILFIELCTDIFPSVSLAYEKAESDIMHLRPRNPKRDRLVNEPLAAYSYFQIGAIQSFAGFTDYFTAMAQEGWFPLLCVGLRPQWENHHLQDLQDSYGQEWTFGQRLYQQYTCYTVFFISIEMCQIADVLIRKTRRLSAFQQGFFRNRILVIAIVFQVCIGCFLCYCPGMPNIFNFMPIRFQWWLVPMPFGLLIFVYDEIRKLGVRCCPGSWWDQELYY
T1 sequence (P18434 whole entry partner): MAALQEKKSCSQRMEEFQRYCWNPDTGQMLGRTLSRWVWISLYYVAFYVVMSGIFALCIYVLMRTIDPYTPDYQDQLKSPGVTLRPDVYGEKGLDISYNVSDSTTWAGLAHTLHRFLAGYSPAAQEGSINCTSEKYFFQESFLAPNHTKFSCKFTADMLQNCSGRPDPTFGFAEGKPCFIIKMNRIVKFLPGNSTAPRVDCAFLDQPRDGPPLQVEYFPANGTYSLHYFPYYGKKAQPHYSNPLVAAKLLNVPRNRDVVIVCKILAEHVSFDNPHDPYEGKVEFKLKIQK
T2 sequence (P27112 whole entry): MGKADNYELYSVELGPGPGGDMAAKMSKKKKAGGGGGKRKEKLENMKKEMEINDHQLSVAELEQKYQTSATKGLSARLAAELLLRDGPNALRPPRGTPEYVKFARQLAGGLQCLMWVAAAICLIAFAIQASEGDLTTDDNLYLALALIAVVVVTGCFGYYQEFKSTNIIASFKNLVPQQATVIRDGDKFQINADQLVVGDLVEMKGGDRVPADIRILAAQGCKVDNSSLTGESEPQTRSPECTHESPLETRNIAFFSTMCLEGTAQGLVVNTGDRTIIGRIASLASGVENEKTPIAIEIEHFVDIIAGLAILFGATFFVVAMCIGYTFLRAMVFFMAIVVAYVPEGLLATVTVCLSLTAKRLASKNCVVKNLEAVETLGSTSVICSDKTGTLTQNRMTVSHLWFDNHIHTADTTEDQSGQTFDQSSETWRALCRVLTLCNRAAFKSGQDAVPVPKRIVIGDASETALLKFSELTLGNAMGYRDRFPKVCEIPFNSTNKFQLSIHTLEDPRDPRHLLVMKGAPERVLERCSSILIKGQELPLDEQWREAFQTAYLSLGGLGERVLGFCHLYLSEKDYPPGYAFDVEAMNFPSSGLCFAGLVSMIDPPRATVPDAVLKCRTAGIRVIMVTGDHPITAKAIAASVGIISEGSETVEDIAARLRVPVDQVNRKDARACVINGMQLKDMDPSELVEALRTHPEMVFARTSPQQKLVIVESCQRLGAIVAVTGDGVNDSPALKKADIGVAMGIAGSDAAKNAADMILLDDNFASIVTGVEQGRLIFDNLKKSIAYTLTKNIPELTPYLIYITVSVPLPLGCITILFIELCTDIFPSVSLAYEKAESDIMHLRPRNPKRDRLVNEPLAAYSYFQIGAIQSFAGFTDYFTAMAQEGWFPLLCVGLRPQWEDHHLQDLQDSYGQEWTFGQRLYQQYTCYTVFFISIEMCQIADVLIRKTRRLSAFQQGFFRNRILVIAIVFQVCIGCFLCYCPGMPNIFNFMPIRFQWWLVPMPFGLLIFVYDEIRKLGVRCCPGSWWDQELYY
T2 sequence (P18597 whole entry partner): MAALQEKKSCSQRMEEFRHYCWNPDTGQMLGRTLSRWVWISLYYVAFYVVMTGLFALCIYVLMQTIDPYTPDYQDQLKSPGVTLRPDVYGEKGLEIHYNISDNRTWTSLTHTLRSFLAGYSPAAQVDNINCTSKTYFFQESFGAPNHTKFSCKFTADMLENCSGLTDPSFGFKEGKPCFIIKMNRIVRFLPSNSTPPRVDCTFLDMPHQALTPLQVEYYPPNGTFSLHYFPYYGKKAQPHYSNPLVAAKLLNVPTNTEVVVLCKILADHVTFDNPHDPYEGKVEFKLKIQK

For the molecule `Cc1nc2c(OCc3ccccc3)cccn2c1CC#N` [SCH28080], the “effect on H+ flux (rate of acidification)” value in assay [1] (100 μM SCH28080, hog gastric vesicles, P<0.05) is recorded as “significantly reduces”; in assay [2], “significantly reduces”. Moreover, the “effect on acidification of outer well medium (representative experiment)” value in assay [1] (100 μM SCH28080, hog vesicles, 5 mM MgATP, 100 μg/ml valinomycin) is listed as “blocks acidification”. In assay [3], the “effect on ATP-dependent transport of acid across the bilayer” value is “inhibited”.

Usually IC50 stands for the point on the concentration scale where inhibition reaches its midpoint. Consider `COc1ccc(CCN2C(=O)CSC2c2ccc(C)c(C)c2)cc1` (centres unmarked) [compound B, 2-(3,4-dimethyphenyl)-3-[2-(4-methoxyphenyl)ethyl]-thiazolidin4-one], for which the “resistance of PLLA membrane + phospholipids + Kv1.5 vesicles after inhibitor” value in assay [4] came out at 4.13±0.52 MΩ. Besides, the “effect on Kv1.5 K+ channel currents (I-V curve)” value in assay [5] (200 nM and 500 nM compound B) is listed as “inhibited”. The “effect on Kv1.5 K+ current after addition of Kv1.5 vesicles” value in assay [5] (1 μM compound B, P<0.001) is on record as “inhibited”. Also, the “effect on potassium ion currents of membrane fused with Kv1.5 vesicles (Example 1)” value in assay [5] (concentration not given) is recorded as “inhibited”. In addition, the IC50 in assay [5] (sigmoidal dose-response plot, n=6, 100 mM KCl/20 mM HEPES pH 7.4, read-out: IC50, Kv1.5-mediated K+ currents expressed as ΔI at 70 mV as % maximum) stood at 170 ± 40 nM.

Take gramicidin D: the “flux across the inventive membrane” value in assay [6] is listed as 10^8 ions per second, per gramicidin D molecule. Further, in assay [7], the “current with gramicidin D” value was “about 30 μVA”. For the same molecule, the “resistance with gramicidin D, PETE membranes” value in assay [8] (KCl, n=5, PL alone 39.25 MΩ) worked out at 5.41±1.11 MΩ. In assay [8] (NMDGCl), the “change of resistance with gramicidin D, PETE membranes” value is reported as “did not change”. Besides, in assay [8] (presence of K+ (100 mM KCl), P<0.005), the “resistance after gramicidin D, PC filters with 3, 5 and 8 μm pores” value was “virtually zero”. Besides, in assay [8] (presence of K+, n=6, PL alone 11.38 MΩ), the “resistance on addition of gramicidin D, leached PLLA membranes” value is recorded as 0.23±0.15 MΩ. Moreover, the “change of resistance on addition of gramicidin D, leached PLLA membranes” value in assay [8] (presence of NMDG+) is recorded as “unaffected”. Besides, the “reduction of resistance by gramicidin D, PC filters with 3, 5 and 8 μm pores” value in assay [8] (presence of NMDG+ (impermeant cation)) is “not”.

Values taken from patent US7833805B2, “Selectively permeable membranes on porous substrates” (University of Cincinnati, priority 2004, dated 2010).
